Laboratory results reported in publication PMC9571264 (Molecules, 2022).
In brackets after ≈: the same amount, converted by molar mass. Like-named read-outs stand apart in the source and are kept apart here. Values belong to the compound of their own block, whether it stands above or below them.

Tests used:
[1] = system: Lung Cancer A549; assay: MTT cytotoxicity assay, A549; format: cell-based; details: Homo sapiens, 48 h, read-out: IC50 (µM) ± SEM, Lung Cancer A549
Procedure: (§1) Cytotoxic activities of the synthesized derivatives were screened against leukemia (HL60), liver (HepG2), breast (MCF-7), and lung (A549) cancer cell lines and non-cancerous THLE2 and WISH cells at different concentrations [0.01–100 µM] for 48 h using the MTT assay (Table 1).
(§2) Human promyelocytic leukemia ”HL-60”, human hepatocellular carcinoma “HepG2”, human breast cancer “MCF-7”, human lung cancer “A549” cell lines, and two normal cell lines, THLE-2 as normal adult liver epithelial cells and WISH as normal epithelial cells, were obtained from American Type Culture Collection “Rockville, MD, USA”.
(§3) According to the manufacturer’s protocol, the cells were seeded in 96-well plates at a concentration of 5 × 10^4 cells per well (200 µL). Different concentrations of the tested compounds were used to test the cytotoxicity. […] A non-linear regression of curve fit was used to calculate the IC50.

[2] = system: Liver Cancer HepG2; assay: MTT cytotoxicity assay, HepG2; format: cell-based, human; details: read-out: IC50 (µM) ± SEM, Liver Cancer HepG2
Procedure: as §1, §2, §3

[3] = system: Leukemia Cancer HL60; assay: MTT cytotoxicity assay, HL60; format: cell-based; details: Homo sapiens, HL-60, 48 h, read-out: IC50 (µM) ± SEM, Leukemia Cancer HL60
Procedure: as §1, §2, §3

[4] = system: Breast Cancer MCF-7; assay: MTT cytotoxicity assay, MCF-7; format: cell-based; details: Homo sapiens, MCF7, 48 h, read-out: IC50 (µM) ± SEM, Breast Cancer MCF-7
Procedure: as §1, §2, §3

[5] = system: Normal Liver THLE2; assay: MTT cytotoxicity assay, normal THLE2; format: cell-based; details: Homo sapiens, THLE-2, 48 h, read-out: IC50 (µM) ± SEM, Normal Liver THLE2
Procedure: as §1, §2, §3

[6] = system: HepG2; details: ref [37]; cited from earlier work
[7] = system: non-small-cell lung cancer HOP-92; set-up: method as in PMID 21439691; details: ref [39]; cited from earlier work
[8] = system: leukemia CCRF-CEM; set-up: method as in PMID 21439691; details: ref [39]; cited from earlier work
[9] = system: colon cancer HCC-2998; set-up: method as in PMID 21439691; details: ref [39]; cited from earlier work
[10] = system: promyelocytic leukemia cell line (HL60); set-up: method as in PMID 19322800; details: ref [38]; cited from earlier work
[11] = system: HepG2; set-up: method as in PMID 24148965, PMID 26890810; details: ref [41],[43]; read-out: IC50 on HepG2 (apoptotic effect); cited from earlier work

Compound: Cc1cc(=O)oc2cc(O)ccc12 [Compound 3, 7-Hydroxy-4-methylcoumarin]
IC50 [1]: 16.5 ± 1.98 µM | IC50 ([2]; Homo sapiens, HepG2, 48 h): 95.7 ± 1.13 µM | IC50 [3]: 42.55 ± 0.22 µM | IC50 [4]: 29.3 ± 1.02 µM

Compound: O=C(O)/C=C/c1ccccc1 [Compound 6, cinnamic acid]
IC50 [1]: 27.6 ± 1.95 µM | IC50 ([2]; Homo sapiens, HepG2, 48 h): 36.58 ± 0.19 µM | IC50 [3]: 88.21 ± 0.51 µM | IC50 [4]: 28.6 ± 0.91 µM

melting point: 96 °C
Compound: Cc1cc(=O)oc2cc(OC(=O)/C=C/c3ccccc3)ccc12 [Compound 8a, (2E)-4-Methyl-2-oxo-2H-chromen-7-yl Cinnamate]
IC50 [1]: 19.6 ± 0.89 µM | IC50 ([2]; 48 h): 75.2 ± 1.39 µM | IC50 [3]: 34.8 ± 0.64 µM | IC50 [4]: 39.3 ± 1.69 µM

melting point: 170 °C
Compound: Cc1c(Br)c(=O)oc2cc(OC(=O)/C=C/c3ccccc3)ccc12 [Compound 8c, (2E)-3-bromo-4-methyl-2-oxo-2H-chromen-7-yl cinnamate]
IC50 [5]: 124 ± 2.12 µM | IC50 [1]: 24.3 ± 0.37 µM | IC50 ([2]; Homo sapiens, HepG2, 48 h): 17.4 ± 0.19 µM | IC50 [3]: 48.1 ± 0.88 µM | IC50 [4]: 67.3 ± 2.03 µM

Compound: C/C(=N\NC(=O)COc1ccc2c(C)cc(=O)oc2c1)c1ccc(Cl)cc1 [III]
IC50 against HepG2 [6]: 2.84 ± 0.48 µg/mL (≈ 7.38 µM)

Compound: Cc1cc(=O)oc2cc(OCC(=O)N/N=C/c3ccc(Br)cc3)ccc12 [IV]
IC50 against HepG2 [6]: 4.67 ± 0.78 µg/mL (≈ 11.2 µM)

Compound: CN[C@@H]1C[C@H]2O[C@@](C)([C@@H]1OC)n1c3ccccc3c3c4c(c5c6ccccc6n2c5c31)C(=O)NC4 [Staurosporine, reference compound]
IC50 [1]: 3.7 ± 0.09 µM | IC50 [4]: 3.06 ± 0.42 µM

Compound: CC(=O)c1cc2c(C)cc(=O)oc2cc1OCCN1CCOCC1 [VI]
GI, non-small-cell lung cancer HOP-92 [7]: 237.8 µM | GI, leukemia CCRF-CEM [8]: 627.1 µM | GI, colon cancer HCC-2998 [9]: 341.4 µM

Compound: Cc1cc(=O)oc2cc(OC(C)/C=C/C3=CC(=O)C(C)(C)O3)ccc12 (centres unmarked) [V]
GI50 [10]: 0.5 ± 0.02 µM

Compound: O=C/C=C/c1ccccc1 [cinnamaldehyde]
IC50 [11]: 9.76 ± 0.67 µM

Compound: COc1cccc2c1C(=O)c1c(O)c3c(c(O)c1C2=O)C[C@@](O)(C(=O)CO)C[C@@H]3O[C@H]1C[C@H](N)[C@H](O)[C@H](C)O1 [doxorubicin]
IC50 against HepG2 [6]: 2.11 ± 0.13 µg/mL (≈ 3.88 µM)
